From EP4741392A1, “1H-PYRAZOLO[4,3-C]PYRIDINE COMPOUND, AND COMPOSITION THEREOF AND USE THEREOF” (Shenzhen TargetRx Co., Ltd., priority 2023, dated 2025) come the findings set out here.

pIC50: −log10 of the molar value.

What all share (assay type): cell-based
In one assay the test system is Ramos cells with BTK WT. As to the kind of experiment: Phosphor-BTK(Y223) assay, suspended cells. Conditions: Homo sapiens, Ramos, phosphorylated BTK Y223, Ramos cells with BTK WT. In short, it runs like this:
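Ramos BTK WT cells (2.5 k/well) were treated with compound dilutions for 2 h at 37 °C, then 5 mM Na3VO4 for 3 h. Lysates were read by HTRF p-BTK(Y223) cryptate/d2 antibodies overnight at RT (665/620 ratio). IC50 came from a four-parameter fit of % inhibition versus blank and positive-control wells.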

A further assay relates to TMD8 cells. In words: Viability assay of TMD8 cells (CTG). The settings on record: Homo sapiens, cell viability, 120 hours. The method, then:
(§1) The in vitro antiproliferative activity of the compounds of the present disclosure against TMD8 cells and OCI-LY10 cells was assayed using CTG (Cell Titer-Glo) luminescent cell viability assay. The specific assay methods were as follows. • a) TMD8 cells were cultured at 37 °C and 5% CO2 in complete medium [RPMI 1640 (supplier Gibco, product number 22400-089) + 10% FBS (supplier Gibco, product number 10091-148) + 1% P/S (supplier Hyclone, product number SV30010)]; OCI-LY10 cells were cultured at 37 °C and 5% CO2 in medium [IMDM (supplier Gibco, product number 31980-030) + 20% FBS (supplier Gibco, product number 10091-148) + 1% P/S (supplier Hyclone, product number SV30010) + 0.05 mM 2-Mercaptoethanol (supplier Sigma, product number M6250)]. • b) Cells in the logarithmic growth phase were harvested, and the total cell count and viable cell count were determined using a Vi-cell cell counter (supplier: BECKMAN COULTER, product number 2785198). • c) Cell density was adjusted using complete culture medium. Then, the cells were inoculated at 1500 cells per well in a 384-well cell culture plate (supplier Greiner, product number 781090). • d) The cells in the 384-well plate were cultured at 37 °C and 5% CO2 overnight. • e) A 10-fold drug solution was prepared, and then the serially diluted compound was transferred to the corresponding assay wells of the 384-well cell plate so that the final assay concentration was 1000 nM, with 9 concentrations, 3-fold dilutions, and triplicates for each drug concentration. • f) The cells in the 384-well plate with the drug added were cultured at 37 °C and 5% CO2 for another 120 hours. • g) The cells were removed from the incubator, and allowed to equilibrate at room temperature for 30 minutes. The cell state and compound solubility were observed under a microscope. • h) An equal volume of CellTiterGlo solution (supplier Promega, product number G7573) was added to each well, and the plate was incubated at room temperature for 30 minutes. • i) Then, the luminescent signal value was detected on an EnVision instrument (supplier PerkinElmer, product number 2441715).
(§2) The data were analyzed using XL-fit software (supplier: ID Business Solutions Ltd., software version: XL fit 5.5.0.5). Nonlinear regression was performed using X=Log(X), and the X values were transformed using a four-parameter Logistic model 205, from which the IC50 values were calculated. Inhibition rate % = (Max−samplevalue)/Max*100.(Max:DMSOnegativecontrol) [formula]

The test system of a further assay is OCI-LY10 cells. As to the kind of experiment: Viability assay of OCI-LY10 cells (CTG). Conditions: Homo sapiens, OCI-Ly10, 120 h, cell viability, read-out: OCl-Ly10. As for the experimental part: as §1, §2

As for `COCCOc1ccc(-c2cnc(-c3ccc(CNC(=O)c4cc(F)ccc4OC)cc3)c3c(N)n[nH]c23)nc1` [Example 59, N-(4-(3-amino-7-(5-(2-methoxyethoxy)pyridin-2-yl)-1H-pyrazolo[4,3-c]pyridin-4-yl)benzyl)-5-fluoro-2-methoxybenzamide], the pIC50 in the assay with Ramos cells with BTK WT, in the assay on TMD8 cells and in the assay on OCI-LY10 cells was not below 8.30 each time.

Take `COc1ccc(F)cc1C(=O)NCc1ccc(-c2ncc(-c3ccc(OCCN(C)C)cn3)c3[nH]nc(N)c23)cc1` [Example 60, N-(4-(3-amino-7-(5-(2-(dimethylamino)ethoxy)pyridin-2-yl)-1H-pyrazolo[4,3-c]pyridin-4-yl)benzyl)-5-fluoro-2-methoxybenzamide]: the pIC50 in the assay with Ramos cells with BTK WT, in the assay on TMD8 cells and in the assay on OCI-LY10 cells was not below 8.30 in each case.

Regarding `COc1ccc(F)cc1C(=O)NCc1ccc(-c2ncc(-c3ccc(OCCN4CCOCC4)cn3)c3[nH]nc(N)c23)cc1` [Example 61, N-(4-(3-amino-7-(5-(2-morpholinoethoxy)pyridin-2-yl)-1H-pyrazolo[4,3-c]pyridin-4-yl)benzyl)-5-fluoro-2-methoxybenzamide], the pIC50 in the assay on Ramos cells with BTK WT, with TMD8 cells and in the assay with OCI-LY10 cells was not below 8.30 in each case.

Take `COc1ccc(F)cc1C(=O)NCc1ccc(-c2ncc(-c3ccc(OCCN4CCCC4)cn3)c3[nH]nc(N)c23)cc1` [Example 62, N-(4-(3-amino-7-(5-(2-(pyrrolidin-1-yl)ethoxy)pyridin-2-yl)-1H-pyrazolo[4,3-c]pyridin-4-yl)benzyl)-5-fluoro-2-methoxybenzamide]: the figures for the pIC50 in the assay with Ramos cells with BTK WT, in the assay on TMD8 cells and with OCI-LY10 cells were 8.00 to 8.30, not below 8.30 and not below 8.30, respectively.

As to `COc1ccc(F)cc1C(=O)NCc1ccc(-c2ncc(-c3ccc(C(C)(C)O)cn3)c3[nH]nc(N)c23)cc1` [Example 65, N-(4-(3-amino-7-(5-(2-hydroxypropan-2-yl)pyridin-2-yl)-1H-pyrazolo[4,3-c]pyridin-4-yl)benzyl)-5-fluoro-2-methoxybenzamide], the pIC50 with Ramos cells with BTK WT, with TMD8 cells and with OCI-LY10 cells was not below 8.30 each time.

Take `COc1ccc(F)cc1C(=O)NCc1ccc(-c2ncc(-c3ccc(CN4CCCCC4)cn3)c3[nH]nc(N)c23)cc1` [Example 66, N-(4-(3-amino-7-(5-(piperidin-1-ylmethyl)pyridin-2-yl)-1H-pyrazolo[4,3-c]pyridin-4-yl)benzyl)-5-fluoro-2-methoxybenzamide]: the pIC50 with Ramos cells with BTK WT is 8.00 to 8.30; in the assay on TMD8 cells it was not below 8.30; with OCI-LY10 cells, not below 8.30.

In the case of `COc1ccc(F)cc1C(=O)NCc1ccc(-c2ncc(-c3ccc(CN4CCOCC4)cn3)c3[nH]nc(N)c23)cc1` [Example 67, N-(4-(3-amino-7-(5-(morpholinomethyl)pyridin-2-yl)-1H-pyrazolo[4,3-c]pyridin-4-yl)benzyl)-5-fluoro-2-methoxybenzamide], the pIC50 in the assay with Ramos cells with BTK WT, in the assay on TMD8 cells and with OCI-LY10 cells was not below 8.30 in each case.

As to `COc1ccc(F)cc1C(=O)NCc1ccc(-c2ncc(-c3ccc(CN4CCN(C)CC4)cn3)c3[nH]nc(N)c23)cc1` [Example 68, N-(4-(3-amino-7-(5-((4-methylpiperazin-1-yl)methyl)pyridin-2-yl)-1H-pyrazolo[4,3-c]pyridin-4-yl)benzyl)-5-fluoro-2-methoxybenzamide], the pIC50 in the assay with Ramos cells with BTK WT, with TMD8 cells and with OCI-LY10 cells was not below 8.30 each time.

In the case of `COc1ccc(F)cc1C(=O)NCc1ccc(-c2ncc(-c3cc4ccccn4n3)c3[nH]nc(N)c23)cc1` [Example 69, N-(4-(3-amino-7-(pyrazolo[1,5-a]pyridin-2-yl)-1H-pyrazolo[4,3-c]pyridin-4-yl)benzyl)-5-fluoro-2-methoxybenzamide], the pIC50 in the assay on Ramos cells with BTK WT, in the assay on TMD8 cells and in the assay on OCI-LY10 cells was not below 8.30 in each case.

For the compound `COc1ccc(F)cc1C(=O)NCc1ccc(-c2ncc(-c3cc4n(n3)CCN(C)C4)c3[nH]nc(N)c23)cc1` [Example 71, N-(4-(3-amino-7-(5-methyl-4,5,6,7-tetrahydropyrazolo[1,5-a]pyrazin-2-yl)-1H-pyrazolo[4,3-c]pyridin-4-yl)benzyl)-5-fluoro-2-methoxybenzamide], the pIC50 with Ramos cells with BTK WT, with TMD8 cells and in the assay on OCI-LY10 cells was not below 8.30 in each case.

For the compound `CCN1CCn2nc(-c3cnc(-c4ccc(CNC(=O)c5cc(F)ccc5OC)cc4)c4c(N)n[nH]c34)cc2C1` [Example 72, N-(4-(3-amino-7-(5-ethyl-4,5,6,7-tetrahydropyrazolo[1,5-a]pyrazin-2-yl)-1H-pyrazolo[4,3-c]pyridin-4-yl)benzyl)-5-fluoro-2-methoxybenzamide], the pIC50 in the assay on Ramos cells with BTK WT, in the assay with TMD8 cells and in the assay with OCI-LY10 cells was not below 8.30 throughout.

Turning to `COc1ccc(F)cc1C(=O)NCc1ccc(-c2ncc(-c3ccc(N4CCN(C)C[C@@H]4C)cn3)c3[nH]nc(N)c23)cc1` [Example 74, (S)-N-(-4-(3-amino-7-(5-(2,4-dimethylpiperazin-1-yl)pyridin-2-yl) 1H-pyrazolo[4,3-c]pyridin-4-yl)benzyl)-5-fluoro-2-methoxybenzamide], the pIC50 with Ramos cells with BTK WT, with TMD8 cells and in the assay with OCI-LY10 cells was not below 8.30 in each case.

For `COc1ccc(F)cc1C(=O)NCc1ccc(-c2ncc(-c3ccc(N4CCN(C)C[C@H]4C)cn3)c3[nH]nc(N)c23)cc1` [Example 75, (R)-N-(-4-(3-amino-7-(5-(2,4-dimethylpiperazin-1-yl)pyridin-2-yl) 1H-pyrazolo[4,3-c]pyridin-4-yl)benzyl)-5-fluoro-2-methoxybenzamide], the pIC50 in the assay with Ramos cells with BTK WT, in the assay on TMD8 cells and with OCI-LY10 cells was not below 8.30 in each case.

Consider `COc1ccc(F)cc1C(=O)NCc1ccc(-c2ncc(-c3ccc(N4CCOCC4)cn3)c3[nH]nc(N)c23)cc1` [Example 76, N-(4-(3-amino-7-(5-morpholinopyridin-2-yl)-1H-pyrazolo[4,3-c]pyridin-4-yl)benzyl)-5-fluoro-2-methoxybenzamide], for which the pIC50 in the assay with Ramos cells with BTK WT, in the assay on TMD8 cells and in the assay on OCI-LY10 cells was not below 8.30 throughout.

Regarding `COc1ccc(F)cc1C(=O)NCc1ccc(-c2nc(C)c(-c3ncccn3)c3[nH]nc(N)c23)cc1` [Example 84, N-(4-(3-amino-6-methyl-7-(pyrimidin-2-yl)-1H-pyrazolo[4,3-c]pyridin-4-yl)benzyl)-5-fluoro-2-methoxybenzamide], the results for the pIC50 in the assay with Ramos cells with BTK WT, with TMD8 cells and in the assay with OCI-LY10 cells were 8.00 to 8.30, 8.00 to 8.30 and 7.30 to 8.00, respectively.

`COc1ccc(F)cc1C(=O)NCc1ccc(-c2nc(C(F)F)c(-c3ncccn3)c3[nH]nc(N)c23)cc1` [Example 85, N-(4-(3-amino-6-(difluoromethyl)-7-(pyrimidin-2-yl)-1H-pyrazolo[4,3-c]pyridin-4-yl)benzyl)-5-fluoro-2-methoxybenzamide]: the pIC50 with Ramos cells with BTK WT was not below 8.30; with TMD8 cells it was not below 8.30; with OCI-LY10 cells it was 7.30 to 8.00.

Turning to `COc1ccc(F)cc1C(=O)NCc1ccc(-c2nc(C3CCSCC3)cc3[nH]nc(N)c23)cc1` [Example 91, N-(4-(3-amino-6-(tetrahydro-2H-thiopyran-4-yl)-1H-pyrazolo[4,3-c]pyridin-4-yl)benzyl)-5-fluoro-2-methoxybenzamide], the pIC50 in the assay with Ramos cells with BTK WT is 8.00 to 8.30; with TMD8 cells, not below 8.30; with OCI-LY10 cells it was not below 8.30.

With `C=CC(=O)N1CCCC(c2cc3[nH]nc(N)c3c(-c3ccc(CNC(=O)c4cc(F)ccc4OC)cc3)n2)C1` (stereo not drawn) [Example 96, N-(4-(6-(1-acryloylpiperidin-3-yl)-3-amino-1H-pyrazolo[4,3-c]pyridin-4-yl)benzyl)-5-fluoro-2-methoxybenzamide], the pIC50 with Ramos cells with BTK WT, with TMD8 cells and in the assay with OCI-LY10 cells was not below 8.30 each time.

In the case of `COc1ccc(F)cc1C(=O)NCc1ccc(-c2nc(C3CCOCC3)cc3[nH]nc(N)c23)cc1` [Example 115, N-(4-(3-amino-6-(tetrahydro-2H-pyran-4-yl)-1H-pyrazolo[4,3-c]pyridin-4-yl)benzyl)-5-fluoro-2-methoxybenzamide], the values for the pIC50 in the assay on Ramos cells with BTK WT, in the assay with TMD8 cells and with OCI-LY10 cells were not below 8.30, 7.30 to 8.00 and 7.30 to 8.00, respectively.
